How the values were obtained:
[1] = test system: VRE clinical isolate S344; type: cell-based, E. faecium
[2] = test system: VRE clinical isolate S234; experiment: organism not typed; type: cell-based, E. faecalis
[3] = test system: VRE clinical isolate S557; experiment: organism not typed; type: cell-based, E. faecium
[4] = test system: VRE clinical isolate C27569; type: cell-based, E. faecium
[5] = test system: VRE clinical isolate C28535; type: cell-based, E. faecalis
[6] = test system: VRE clinical isolate D1; experiment: organism not typed; type: cell-based, E. faecium
[7] = test system: VRE clinical isolate C21667; type: cell-based, E. faecalis
[8] = test system: VRE clinical isolate SL152; type: cell-based, E. faecium

Measured: MIC

Cc1cc(=O)n(C)c2c3c4c(cc12)c(C)cc(=O)n4CO3 [DNM, deoxynybomycin]
0.25 µg/mL: all assays above

CCn1c(=O)cc(C)c2cc3c(C)cc(=O)n4c3c(c21)OC4 [DNM-2]
0.25 µg/mL: [4] | [5]
